Results: patent publication US9162979B2, “1,5-Diary1-2-alkylpyrrole-3-substituted nitro esters, selective COX-2 inhibitors and nitric oxide donors” (ROTTAPHARM BIOTECH S.R.L., priority 2010, dated 2015)

How the values were obtained:
[1] = test system: carrageenan-induced inflammatory state in the rat; assay: Carrageenan test: nociceptive threshold (weight supported); assay type: in vivo; details: for Weight supported (g) Before treatment: baseline before treatment
Experimental: (§1) Male Swiss albino mice (23-25 g) and Wistar rats (150-200 g) were used.
The nociceptive threshold in the rat was determined with an analgesiometer, as described by Leighton et al. (Br. J. Pharmacol., 1988, 93, 553-560), the pressure was measured before the treatment and after 30 and 60 min. To reproduce the inflammatory state in the rat, carrageenan was administered i.p. (0.1 ml, 1%) 4 h before the test.
(§2) The test was performed using 6 animals per group, all the compounds were administered per os, 30 min before the test. The carrageenan is administered 2 h before the test.

[2] = test system: carrageenan-induced inflammatory state in the rat; assay: as above; assay type: in vivo; details: 20 mg/kg per os
[3] = test system: isolated rings of thoracic aorta; assay: Evaluation of release of NO: vasorelaxing activity on endothelium-denuded aortic rings contracted with KCl; design: species or system rat; key to NO release properties Emax (maximum vasorelaxing effect) / NO release properties pIC50 (vasorelaxing potency): S.E: Scarcely Effective: it is not possible to detect NO release comparable to the other compounds mentioned here; details: relative to contractile tone induced by 20 mM KCl, 1 nM-10 μM
Outline: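 Endothelium-denuded male Wistar rat thoracic aorta rings (2 g preload, Tyrode, 37 °C, 95% O2/5% CO2) precontracted with 20 mM KCl, then given cumulative test compound (1 nM–10 μM). Relaxation as % of KCl tone; Emax and pIC50 reported as mean±SE of 5–10 experiments. Also repeated with 1 μM ODQ.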

[4] = test system: rat paw oedema induced by carrageenan; assay: Volume of oedema test (carrageenan); assay type: in vivo
Experimental: The rat paw volumes were measured using a pletismometer. Four hours after injecting carrageenan 1.0% (0.1 ml injection), the volume of the right hind-paw was measured and compared with that of controls treated with a saline/carrageenan solution. The rats were administered the test compounds 3.5 hours after the carrageenan. The results are given as paw volume expressed in ml. The results relating to the analgesic and anti-oedemic activity in the carrageenan test for some representative compounds of the invention are shown in Table 11.
as §2

COX-2 = COX-2 (Mus musculus (Mouse), UniProt Q05769); assay: Evaluation of COX-2 activity: PGE2 production in LPS-stimulated J774 cells; assay type: cell-based, murine; details: J774 cells stimulated 24 hours with LPS 10 μg/mL; PGE2 by radio-immunological assay; read-out: Cyclooxygenase inhibition COX-2 IC50
COX-2, sequence (Q05769 18-604): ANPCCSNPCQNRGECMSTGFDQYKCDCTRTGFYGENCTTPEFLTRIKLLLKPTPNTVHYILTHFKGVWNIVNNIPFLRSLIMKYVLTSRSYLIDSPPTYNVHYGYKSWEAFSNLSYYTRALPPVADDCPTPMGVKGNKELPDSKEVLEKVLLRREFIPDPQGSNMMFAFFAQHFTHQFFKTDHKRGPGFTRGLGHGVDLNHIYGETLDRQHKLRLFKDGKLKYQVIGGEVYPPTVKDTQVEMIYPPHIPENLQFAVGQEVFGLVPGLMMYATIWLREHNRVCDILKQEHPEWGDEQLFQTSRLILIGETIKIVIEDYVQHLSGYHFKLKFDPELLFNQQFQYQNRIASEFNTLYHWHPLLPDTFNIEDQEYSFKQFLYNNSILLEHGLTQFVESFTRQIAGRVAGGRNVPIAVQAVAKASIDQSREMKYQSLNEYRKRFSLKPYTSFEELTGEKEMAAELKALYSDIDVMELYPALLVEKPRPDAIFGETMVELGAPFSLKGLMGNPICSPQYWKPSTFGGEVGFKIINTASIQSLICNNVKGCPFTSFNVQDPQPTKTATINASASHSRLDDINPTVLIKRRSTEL
Outline: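 Murine J774 macrophages switched to serum-free medium before stimulation; PGE2 in supernatants measured by radioimmunoassay, triplicate wells per condition. IC50 with 95% intervals from sigmoidal variable-slope dose-response fit.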

rat liver homogenate [5] = assay: Evaluation of release of nitrites in hepatic homogenate; details: nitrite after 4 hours, 1 mM, 37° C., as percentage of SNP
From the text: (§3) By evaluating the time-dependent increase in nitrite concentrations in the liver homogenate, it was possible to extrapolate two descriptive parameters:
(§4) Time (in minutes) required for an amount of nitrite to be released by the test compound equal to half its maximum release.

rat liver homogenate [6] = details: 1 mM
From the text: as §3, §4

[7] = test system: MIA-induced osteoarthritis; assay: Chronic pain from MIA-induced osteoarthritis; assay type: in vivo, rat; details: 20 mg/kg per os twice daily for 14 days
Experimental: The compounds are administered per os at a dose of 20 mg/kg twice daily for 14 days. Monosodium iodoacetate (MIA), 2 mg in 25 μL is injected in the left knee of anaesthetized rats, the test is carried out according to the literature. Each experiment represents the mean value for 5 animals.

[8] = test system: mouse abdominal contraction (writhing) induced by acetic acid; assay: Abdominal constriction test induced by acetic acid; assay type: in vivo
Experimental: as §1
The antinociceptive activity was determined by the mouse abdominal contraction test using acetic acid (0.6%), which induces writhing, according to Koster's method (Fed. Proc., 1959, 18, 412-418). The number of stretching movements was counted for 10 minutes, starting 5 minutes after injection of acetic acid. The results relating to analgesic activity in the abdominal constriction test with representative compounds of the invention are shown in Table 10.
The test was carried out using 10 animals in the treated group and 20 in the control group (CMC); all the compounds were administered per os with the exception of the compound of Example 8, which was administered i.p.

SMILES	Weight supported (g) After treatment 30 min ([1]; 20 mg/kg per os)	Weight supported (g) After treatment 60 min ([1]; 20 mg/kg per os)	Weight supported (g) Before treatment ([1]; 20 mg/kg per os)	Weight supported after 120 min [2]	NO release properties Emax (maximum vasorelaxing effect) [3]	Oedema Volume ([4]; 20 mg/kg per os)	IC50 (COX-2)	Weight supported (g) After treatment 30 min ([1]; 10 mg/kg per os)	Weight supported (g) After treatment 60 min ([1]; 10 mg/kg per os)	Weight supported (g) Before treatment ([1]; 10 mg/kg per os)	Emax ([3]; Rattus norvegicus, read-out: NO release properties Emax (maximum vasorelaxing effect))	Maximum release (%) (rat liver homogenate [5])	T ½ (rat liver homogenate [6])	Weight supported (g) After treatment 30 min [7]	Weight supported (g) After treatment 4 h [7]	Weight supported (g) After treatment 24 h [7]	Weight supported (g) Before treatment ([7]; baseline before treatment)	Oedema Volume ([4]; 10 mg/kg per os)	N writhes ([8]; 10 mg/kg per os)	N writhes ([8]; 20 mg/kg per os)
Cc1c(CCOCCCO[N+](=O)[O-])cc(-c2ccc(S(C)(=O)=O)cc2)n1-c1ccc(F)cc1 [Example 41, 3-[2-[2-(1-(4-Fluorophenyl)-2-methyl-5-(4-methylsulphonylphenyl)-1H-pyrrol-3-yl)]ethoxy]propyl Nitrate]	49.2 ± 3.7 g	50.7 ± 3.8 g	30.9 ± 2.8 g	45.2±4.1	S.E.	1.85 ± 0.08 mL	190 nM	–	–	–	–	–	–	–	–	–	–	–	–	–
Cc1c(CCOCCO[N+](=O)[O-])cc(-c2ccc(S(C)(=O)=O)cc2)n1-c1ccc(F)cc1 [Example 37, 2-[2-[2-(1-(4-Fluorophenyl)-2-methyl-5-(4-methylsulphonylphenyl)-1H-pyrrol-3-yl]ethoxy]ethyl Nitrate]	–	–	–	–	–	–	14 nM	55.1 ± 4.7 g	52.6 ± 4.0 g	34.7 ± 2.7 g	49 ± 3%	25 ± 3%	42.8 ± 6.9 min	45.1 ± 3.7 g	39.1 ± 3.5 g	33.8 ± 3.7 g	34.6 ± 3.1 g	1.87 ± 0.07 mL	19.1 ± 2.7	15.2 ± 3.3
